Patent publication US20250042908A1, “SALTS FOR MTOR COMPOUNDS” (GALDERMA HOLDING S.A., priority 2022, published 2025)
Where a name gives a salt, the structure may show the parent alone. Read-outs that look alike come from different tables or passages of the source.

Experiments:
[1] = XRPD analysis of solid residues collected from the water solubility assay; assay type: physicochemical; settings: solids in suspension in water collected after 24 h stirring, compared to material as received
Protocol: XRPD analysis was conducted with a Bruker D8-Advance diffractometer, type: Bragg-Bentano. Source CuKα1, λ=1.5406 Å and CuKα2, λ2=1.54439 Å. Generator: 35 kV-40 mA. Detector: Lynx Eye.
The sample was analyzed using the following protocol: Around 3 mg of the test compound delivered as solid material is gently grounded to homogenize the powder and deposed on zero-diffraction Silicon sample holder. The sample holder is then placed in the X-Ray Diffractometer chamber.
The copper anode X-ray source is turned on using a generator set at 35 kV voltage and at 40 mA intensity. While X-ray beam irradiates the sample, both X-ray source and X-ray detector move on the goniometer with equal 0 angle: diffractometer in Bragg-Brentano configuration. XRPD pattern is recorded in the [2°; 40°] 2θ angle range by step of 0.040 in 20 and for 1 second at each angle step.
(§1) The target concentration tested to measure the maximum solubility of the 3 salts (phosphate, malonate and malate) and free base in 6 different media was 30 mg/ml. Solids in suspension in water solubility assays have been collected by centrifugation (15 min at 18000 rpm) after 24 h stirring for XRPD analysis. Recorded XRPD patterns have been compared to the one recorded for the salts or free base as received (see FIGS. 8-11).

[2] = Solubility of free base and salts in 6 different media (UPLC-UV); assay type: physicochemical; settings: target concentration 30 mg/ml; for solubility at 24 h: thermodynamic from solid
Protocol: The following protocol has been used to prepare samples for solubility measurements at room temperature in the 6 different media. First, weigh appropriate amount of each salt and free base compound to reach the desired target concentration (30 mg/ml). Addition at room temperature the studied media to reach the selected target concentration, follow by orbital stirring at room temperature for 24 h, while protected from light. Except for the glycerin medium, separation of the soluble fraction from the non-soluble fraction is performed by centrifugation (15 min at 18000 rpm) followed by filtration on PTFE 0.45 μm membrane. For the glycerin medium, 3 steps of centrifugation (15 mw at 18000 rpm) to collect the supernatant was performed. The resulting filtrates and supernatant for glycerin medium were diluted in appropriate solvents described in the following table to be in the range of calibration curve. Quantification of the diluted and undiluted samples was performed using UPLC-UV.
A standard calibration curve (chromatographic UV peak area vs concentration) between 0.5 μg/mL and 500 μg/mL was established in DMSO according to the following protocol. First, weighing 1 mg free base, then addition of DMSO until a 1 mg/mL clear DMSO Stock solution is obtained. Next, selected compound DMSO solutions at 5 different concentrations (500 ag/mL, 250 ag/mL, 100 ag/ml, 25 μg/ml and 0.5 μg/mL) were prepared by dilution with pure DMSO.
Samples were analysed by UPLC-UV-MS according to the following: (a) Instrument: Waters Acquity H-Class with PDA and QDa detectors; (b) Column: Waters Acquity BEH C18, 1.7 m, 2.1×50 mm; (c) Flow rate: 0.65 ml/min; (d) UV detection: 220 nm, 254 nm, 290 nm; (e) Column temperature: 40° C.; (f) Injection volume: 0.4 μl; (g) Mobile phase: Gradient with solutions A and B prepared according to Table 6; (h) Ionisation mode: ESI+/ESI−; (i) Source temperature: 600° C.; (j) Capillary voltage: 0.8 kV; and (k) Cone voltage: +20V/−20V.
as §1

[3] = In vitro permeation testing in Franz cells; assay type: in vitro ADME; settings: human abdominal skin, Franz cell
Protocol: In vitro permeation testing was performed using human abdominal skin from 3 donors and 2 samples per donor with a thickness of 400 μm (±100 μm). The samples were used in Franz cell 2 cm^2 of diameter and a receptor volume of 3 mL (PBS+4% BSA (Bovine Serum Albumin).
The receptor compartment was surrounded by a water jacket heated to 37° C.±1° C. insuring a skin surface temperature of 32° C.±1° C. The receptor compartment is separated from the donor compartment by the skin membrane where the epidermis side faces the donor. Receptor compartments containing magnetic stirrer bar, were filled with the receptor fluid in such a way to prevent any formation of air-bubbles. During the diffusion experiment, receptor fluids were continuously stirred in order to ensure homogenization.
Abdominal skins from aesthetic surgery were used in this study. Skins, upon arrival, were separated from hypodermis with the help of tweezers and a scalpel blade. Skins were gently washed and stored flat in aluminum foil for freezing at −20° C. At the day of experiment, skins were thawed then cut in smaller pieces to fit with diffusion cell geometry. In this experiment three donors were used. Skin specimens were mounted onto Franz diffusion cells with PBS+4% Bovine Serum Albumin as a receptor fluid. […]
Following at least 45 min equilibrium with receptor fluid, skin integrity is assessed by Transepidermal Water Loss (TEWL) measurements. […] TEWL is again measured and cells still depicting a high water flux are recorded. […] Individual TEWL values for each skin specimen used, room temperature and relative humidity were also recorded.
Test Items were applied at a dose of 5 mg/cm^2 for 24 hours on the skin samples in the Franz cell. At the end of exposure, the following samples were recovered: Stratum corneum (not analysed), epidermis, dermis and receptor fluid were collected analysed for API content.
The samples were analyzed following LC/MS/MS method internally certified. […] Percutaneous fluxes were calculated as the ratio of permeated amounts in receptor fluid (RF) of each individual cell to the duration of exposure (24 h).

[4] = Glycerin/Water 5/95 (v/v), aqueous with cosolvent or surfactant or cyclodextrin, Glycerin/Water 5/95 (v/v), room temperature, 24 h, read-out: Solubility, Glycerin/Water 5/95 (v/v)
[5] = Glycerin/Water 10/90 (v/v), aqueous with cosolvent or surfactant or cyclodextrin, Glycerin/Water 10/90 (v/v), room temperature, 24 h, read-out: Solubility, Glycerin/Water 10/90 (v/v)
[6] = Glycerin/Water 20/80 (v/v), aqueous with cosolvent or surfactant or cyclodextrin, Glycerin/Water 20/80 (v/v), room temperature, 24 h, read-out: Solubility, Glycerin/Water 20/80 (v/v)
[7] = Transcutol/Water 10/90 (v/v), aqueous with cosolvent or surfactant or cyclodextrin, Transcutol/Water 10/90 (v/v), room temperature, 24 h, read-out: Solubility, Transcutol/Water 10/90 (v/v)
[8] = glycerin, organic solvent or mixture, glycerin, room temperature, 24 h, read-out: Solubility, Glycerin
[9] = water, water, orbital stirring at room temperature for 24 h, read-out: Solubility, Water
[10] = Glycerin/Water 5/95 (v/v), room temperature, 24 h
[11] = Glycerin/Water 10/90 (v/v), room temperature, 24 h
[12] = Glycerin/Water 20/80 (v/v), room temperature, 24 h
[13] = Transcutol/Water 10/90 (v/v), room temperature, 24 h
[14] = glycerin, room temperature, 24 h
[15] = water, orbital stirring at room temperature for 24 h
[16] = 5 mg/cm^2 for 24 hours, 0.63 w/w % phosphate salt vs 0.5 w/w % free base

SMILES	XRPD of solid residues in water [1]	solubility at 24 h [2, 4] [µg/mL]	solubility at 24 h [2, 5] [µg/mL]	solubility at 24 h [2, 6] [µg/mL]	solubility at 24 h [2, 7] [µg/mL]	solubility at 24 h [2, 8] [µg/mL]	solubility at 24 h [2, 9] [µg/mL]	Solubility, Glycerin/Water 5/95 (v/v) [2, 10] [µg/mL]	Solubility, Glycerin/Water 10/90 (v/v) [2, 11] [µg/mL]	Solubility, Glycerin/Water 20/80 (v/v) [2, 12] [µg/mL]	Solubility, Transcutol/Water 10/90 (v/v) [2, 13] [µg/mL]	Solubility, Glycerin [2, 14] [µg/mL]	Solubility, Water [2, 15] [µg/mL]	ratio of percutaneous flux over dermis concentration, phosphate salt compared to free base [3, 16]	skin permeability coefficient (Kp), phosphate salt relative to free base [3, 16] [times]	permeability of formulation compared to free base formulation ([3]; 24 hours, 10% w/w propylene glycol of the free base formulation replaced with water)
CC(C)CC(C)n1nc(-c2ccc3oc(N)nc3c2)c2c(N)nc(N)nc21.O=C(O)C[C@H](O)C(=O)O (stereo not shown) [Malate Salt]	No crystalline phase conversion	2100 ± 300	2200 ± 200	2900 ± 200	3100 ± 300	21100 ± 200	1600	–	–	–	–	–	–	–	–	–
CC(C)CC(C)n1nc(-c2ccc3oc(N)nc3c2)c2c(N)nc(N)nc21 (stereo not shown) [Free Base, 3-(2-Amino-1,3-benzoxazol-5-yl)-1-(1,3-dimethylbutyl)pyrazolo[3,4-d]pyrimidine-4,6-diamine]	No crystalline phase conversion	–	–	–	–	–	–	29	45	71	256	6400 ± 300	180	–	–	–
CC(C)CC(C)n1nc(-c2ccc3oc(N)nc3c2)c2c(N)nc(N)nc21 (stereo not shown) [Phosphate Salt]	No crystalline phase conversion	–	–	–	–	–	–	4300 ± 200	4700 ± 200	5700 ± 200	5500 ± 200	15800 ± 300	3900 ± 200	over 600 times	3	superior permeability
CC(C)CC(C)n1nc(-c2ccc3oc(N)nc3c2)c2c(N)nc(N)nc21.O=C(O)CC(=O)O (stereo not shown) [Malonate Salt]	Crystalline Phase conversion	2700 ± 200	2900 ± 200	3500 ± 200	3700 ± 200	24700 ± 300	2200	–	–	–	–	–	–	–	–	–
